Test results as given in patent US11834434B2, “Substituted 2-heteroaryloxypyridines and salts thereof and their use as herbicidal agents” (Bayer Aktiengesellschaft, priority 2018, dated 2023).

Columns and labels:
Type in all cases: in vivo
[1] = tested on: Echinochloa crus-galli (ECHCG); test: Post-emergence herbicidal action against Echinochloa crus-galli; conditions: 1280 g/ha; rated visually after about 3 weeks vs untreated controls; 100% = plants have died, 0% = like control plants
Method: (§1) Seeds of mono- and dicotyledonous weed plants were placed in plastic pots in sandy loam soil (doubly sown with in each case one species of mono- or dicotyledonous weed plants per pot), covered with soil and cultivated in a greenhouse under controlled growth conditions. 2 to 3 weeks after sowing, the test plants were treated at the one-leaf stage. The compounds of the invention, formulated in the form of wettable powders (WP) or as emulsion concentrates (EC), were applied onto the green parts of the plants as aqueous suspension or emulsion with addition of 0.5% additive at a water application rate of 600 liters per hectare (converted). After the test plants had been kept in the greenhouse under optimum growth conditions for about 3 weeks, the activity of the preparations was rated visually in comparison to untreated controls. For example, 100% activity=the plants have died, 0% activity=like control plants. Tables B1 to B8 below show the effects of selected compounds of the general formula (I) according to Table 1 on various harmful plants and an application rate corresponding to 1280 g/ha, which were obtained by the experimental procedure mentioned above.

[2] = tested on: Amaranthus retroflexus (AMARE); test: Pre-emergence herbicidal action against Amaranthus retroflexus; conditions: 1280 g/ha; scored visually after about 3 weeks vs untreated controls; 100% = plants have died, 0% = like control plants
From the text: (§2) Seeds of mono- and dicotyledonous weed plants were placed in plastic pots in sandy loam soil (doubly sown with in each case one species of mono- or dicotyledonous weed plants per pot) and covered with soil. The compounds of the invention, formulated in the form of wettable powders (WP) or as emulsion concentrates (EC), were then applied onto the surface of the covering soil as aqueous suspension or emulsion with addition of 0.5% additive at a water application rate of 600 liters per hectare (converted). After the treatment, the pots were placed in a greenhouse and kept under good growth conditions for the test plants. After about 3 weeks, the effect of the preparations was scored visually in comparison with untreated controls as percentages. For example, 100% activity=the plants have died, 0% activity=like control plants. Tables C1 to C8 below show the effects of selected compounds of the general formula (I) according to Table 1 on various harmful plants and an application rate corresponding to 1280 g/ha, which were obtained by the experimental procedure mentioned above.

[3] = tested on: Abutilon theophrasti (ABUTH); test: Pre-emergence herbicidal action against Abutilon theophrasti; conditions: 1280 g/ha; scored visually after about 3 weeks vs untreated controls; 100% = plants have died, 0% = like control plants
From the text: as §2

[4] = tested on: Setaria viridis (SETVI); test: Pre-emergence herbicidal action against Setaria viridis; conditions: 1280 g/ha; scored visually after about 3 weeks vs untreated controls; 100% = plants have died, 0% = like control plants
From the text: as §2

[5] = tested on: Lolium rigidum (LOLRI); test: Pre-emergence herbicidal action against Lolium rigidum; conditions: 1280 g/ha; scored visually after about 3 weeks vs untreated controls; 100% = plants have died, 0% = like control plants
From the text: as §2

[6] = tested on: Poa annua (POAAN); test: Pre-emergence herbicidal action against Poa annua; conditions: 1280 g/ha; scored visually after about 3 weeks vs untreated controls; 100% = plants have died, 0% = like control plants
From the text: as §2

[7] = tested on: Echinochloa crus-galli (ECHCG); test: Pre-emergence herbicidal action against Echinochloa crus-galli; conditions: 1280 g/ha; scored visually after about 3 weeks vs untreated controls; 100% = plants have died, 0% = like control plants
From the text: as §2

[8] = tested on: Matricaria inodora (MATIN); test: Pre-emergence herbicidal action against Matricaria inodora; conditions: 1280 g/ha; scored visually after about 3 weeks vs untreated controls; 100% = plants have died, 0% = like control plants
From the text: as §2

[9] = tested on: Stellaria media (STEME); test: Pre-emergence herbicidal action against Stellaria media; conditions: 1280 g/ha; scored visually after about 3 weeks vs untreated controls; 100% = plants have died, 0% = like control plants
From the text: as §2

[10] = tested on: Abutilon theophrasti (ABUTH); test: Post-emergence herbicidal action against Abutilon theophrasti; conditions: 1280 g/ha; rated visually after about 3 weeks vs untreated controls; 100% = plants have died, 0% = like control plants
Method: as §1

[11] = tested on: Poa annua (POAAN); test: Post-emergence herbicidal action against Poa annua; conditions: 1280 g/ha; rated visually after about 3 weeks vs untreated controls; 100% = plants have died, 0% = like control plants
Method: as §1

[12] = tested on: Amaranthus retroflexus (AMARE); test: Post-emergence herbicidal action against Amaranthus retroflexus; conditions: 1280 g/ha; rated visually after about 3 weeks vs untreated controls; 100% = plants have died, 0% = like control plants
Method: as §1

[13] = tested on: Stellaria media (STEME); test: Post-emergence herbicidal action against Stellaria media; conditions: 1280 g/ha; rated visually after about 3 weeks vs untreated controls; 100% = plants have died, 0% = like control plants
Method: as §1

[14] = tested on: Matricaria inodora (MATIN); test: Post-emergence herbicidal action against Matricaria inodora; conditions: 1280 g/ha; rated visually after about 3 weeks vs untreated controls; 100% = plants have died, 0% = like control plants; column head prints STEME
Method: as §1

[15] = tested on: Agrostis tenuis (AGSTE); test: Early post-emergence herbicidal action against Agrostis tenuis; conditions: 1900 g/ha; scored visually 9 to 12 days after treatment vs untreated controls; 100% = plants have died, 0% = like control plants
Method: (§3) Seeds of monocotyledonous or dicotyledonous weed plants were placed in 96-well microtiter plates in quartz sand and grown in a climatized chamber under controlled growth conditions. 5 to 7 days after sowing, the test plants were treated at the cotyledon stage. The compounds according to the invention, formulated in the form of emulsion concentrates (EC), were applied with a water application rate of the equivalent of 2200 liters per hectare. After the test plants had been left to stand in the climatized chamber for 9 to 12 days under optimum growth conditions, the effect of the preparations was scored visually in comparison to untreated controls. For example, 100% activity=the plants have died, 0% activity=like control plants. Tables A1 to A2 below show the effects of selected compounds of the general formula (I) according to Table 1 on various harmful plants and an application rate corresponding to 1,900 g/ha, which were obtained by the experimental procedure mentioned above.

[16] = tested on: Poa annua (POAAN); test: Early post-emergence herbicidal action against Poa annua; conditions: 1900 g/ha; scored visually 9 to 12 days after treatment vs untreated controls; 100% = plants have died, 0% = like control plants
Method: as §3

SMILES | Post-emergence action against Echinochloa crus-galli (ECHCG) [1] [%] | Pre-emergence action against Amaranthus retroflexus (AMARE) [2] [%] | Pre-emergence action against Abutilon theophrasti (ABUTH) [3] [%] | Pre-emergence action against Setaria viridis (SETVI) [4] [%] | Pre-emergence action against Lolium rigidum (LOLRI) [5] [%] | Pre-emergence action against Poa annua (POAAN) [6] [%] | Pre-emergence action against Echinochloa crus-galli (ECHCG) [7] [%] | Pre-emergence action against Matricaria inodora (MATIN) [8] [%] | Pre-emergence action against Stellaria media (STEME) [9] [%] | Post-emergence action against Abutilon theophrasti (ABUTH) [10] [%] | Post-emergence action against Poa annua (POAAN) [11] [%] | Post-emergence action against Amaranthus retroflexus (AMARE) [12] [%] | Post-emergence action against Stellaria media (STEME) [13] [%] | Post-emergence action against Matricaria inodora (MATIN) [14] [%] | Early post-emergence action against Agrostis tenuis (AGSTE) [15] [%] | Early post-emergence action against Poa annua (POAAN) [16] [%]
Cc1ccnc(Oc2ncccn2)c1Sc1ccc(F)cc1F [Example I-210] | 90 | 100 | 100 | 100 | 100 | 100 | 100 | 100 | 100 | 90 | 100 | – | – | – | – | –
Cc1ccnc(Oc2ncccn2)c1Sc1ccccc1 [Example I-216, 2-[(4-Methyl-3-phenylsulfanyl-2-pyridyl)oxy]pyrimidine] | 100 | 100 | 100 | 100 | 90 | 100 | 100 | 100 | 100 | 100 | 100 | 100 | 100 | – | – | –
Cc1ccc(Cc2ccc(F)cc2F)c(Oc2ncccn2)n1 [Example I-444] | – | 100 | – | 100 | 90 | 100 | – | 100 | 100 | – | 100 | – | 90 | 90 | – | –
Cc1cc(C)c(Cc2ccccc2)c(Oc2ncc(F)cn2)n1 [Example I-478, 2-[(3-Benzyl-4,6-dimethyl-2-pyridyl)oxy]-5-fluoropyrimidine] | 90 | 100 | 100 | 100 | 100 | 100 | 100 | 100 | 100 | 100 | 100 | 100 | 100 | 90 | – | –
Cc1cc(C)c(Cc2ccc(F)cc2)c(Oc2ncc(F)cn2)n1 [Example I-479] | 100 | 100 | 100 | 100 | 100 | 100 | 100 | 100 | 100 | 100 | 100 | 100 | 100 | 100 | – | –
Cc1cc(C)c(Cc2ccc(F)cc2F)c(Oc2ncc(F)cn2)n1 [Example I-481] | 100 | 100 | 100 | 100 | 100 | 100 | 100 | 100 | 100 | 100 | 100 | 100 | 100 | 90 | – | –
COc1cccc(Cc2c(C)cc(C)nc2Oc2ncc(F)cn2)c1 [Example I-484] | 100 | 100 | 100 | 100 | 100 | 100 | 100 | 100 | 100 | 100 | 100 | 100 | 100 | 100 | – | –
COc1cc(Cc2c(C)cc(C)nc2Oc2ncc(F)cn2)ccc1F [Example I-487] | 100 | 100 | 100 | 100 | 100 | 100 | 100 | 100 | 100 | 100 | 100 | 100 | 100 | 100 | – | –
Cc1ccc(Oc2ccccc2)c(Oc2ncc(Cl)cn2)n1 [Example I-500] | 90 | 100 | 100 | 100 | 100 | 100 | 100 | 90 | 100 | 100 | 100 | – | 100 | – | – | –
Cc1cc(C)c(Oc2ncc(Cl)cc2F)c(Oc2ncc(F)cn2)n1 [Example I-591] | – | – | – | – | – | – | – | – | – | – | – | – | – | – | 100 | 100
Cc1cc(C)c(Oc2ncc(F)cn2)c(Oc2ncc(F)cn2)n1 [Example I-595] | – | – | – | – | – | – | – | – | – | – | – | – | – | – | 100 | 100
